Measured values from ChEMBL document CHEMBL4342455, “Benwamycins A-G, Trialkyl-Substituted Benzene Derivatives from a Soil-Derived Streptomyces” (J Nat Prod, 2020).
Calls of active or inactive are those of the source. The rule behind the calls is not given here.

How the values were obtained:
T-cell = assay: Immunosuppressive activity in anti-CD3/anti-CD28-stimulated human T cells assessed as reduction in cell viability after 96 hrs by CFSE dye based flow cytometric analysis; format: functional
3T3-L1 [1] = assay: Induction of glucose uptake in mature mouse 3T3L1 adipocytes assessed as [3H]2-deoxy-D-glucose uptake at 25 uM preincubated for 24 hrs followed by [3H]2-deoxy-D-glucose additon and measured after 10 mins by scintillation counting method relative to control; format: functional
[2] = Cytotoxicity against human naive T cells assessed as reduction in cell viability after 96 hrs by flow cytometric analysis; format: cell-based
3T3-L1 [3] = assay: Induction of glucose uptake in mature mouse 3T3L1 adipocytes assessed as [3H]2-deoxy-D-glucose uptake at 10 uM preincubated for 24 hrs followed by [3H]2-deoxy-D-glucose additon and measured after 10 mins by scintillation counting method relative to control; format: functional

Row | Structure (SMILES) | Activity (T-cell) | Activity (3T3-L1 [1]) | IC50 (T-cell) | CC50 at 96 h [2] | Activity (3T3-L1 [3])
1 | CCC1=CC(=O)[C@@H](C)[C@@H]([C@@H](C)c2ccc(CO)cc2/C=C/CO)O1 | inactive | inactive |  |  | 
2 | CC(=O)[C@@H](C)[C@H](O)[C@@H](C)c1ccc(C)cc1/C=C/CO | inactive | inactive |  |  | 
3 | CCC(=O)O[C@@H]([C@H](C)C(C)=O)[C@@H](C)c1ccc(CO)cc1/C=C/CO | inactive | inactive |  |  | 
4 | CCC1=CC(=O)[C@@H](C)[C@@H]([C@@H](C)c2ccc(C)cc2/C=C/CO)O1 |  | 21.1% | 12.5 µM | > 80 µM | 
5 | COc1ccc2cc3[n+](cc2c1OC)CCc1cc2c(cc1-3)OCO2 [BERBERINE] |  |  |  |  | 25.5%
6 | Cc1ccc([C@H](C)[C@@H](O)[C@H](C)[C@H](C)O)c(/C=C/CO)c1 |  | inactive | 14.3 µM | > 80 µM | 
7 | C[C@@H]([C@H](O)[C@@H](C)c1ccc(CO)cc1/C=C/CO)[C@H](C)O | inactive | inactive |  |  | 
8 | CC(=O)OCc1ccc([C@H](C)[C@@H](O)[C@H](C)C(C)=O)c(/C=C/CO)c1 | inactive | 28.4% |  |  | 
9 | CC(=O)[C@@H](C)[C@H](O)[C@@H](C)c1ccc(CO)cc1/C=C/CO | inactive | inactive |  |  | 
10 | CC(=O)[C@@H](C)[C@H](O)[C@@H](C)c1ccc(C)cc1/C=C/C(=O)O | inactive | inactive |  |  | 
11 | CCC(=O)O[C@@H]([C@H](C)C(C)=O)[C@@H](C)c1ccc(C)cc1/C=C/CO | inactive | inactive |  |  | 
